Results from ChEMBL document CHEMBL1641471, “Psammaplysin H, a new antimalarial bromotyrosine alkaloid from a marine sponge of the genus Pseudoceratina” (Bioorg Med Chem Lett, 2011).

Tests used:
Plasmodium falciparum = experiment: Antimalarial activity against chloroquine-sensitive Plasmodium falciparum 3D7 ring-stage infected in human erythrocytes after 48 hrs by [3H]hypoxanthine assay; type: functional, organism-based
HEK293 = experiment: Cytotoxicity against HEK293 cells after 72 hrs by Alamar Blue assay; type: cell-based; conditions: Homo sapiens, HEK293, 72 h
HepG2 = experiment: Cytotoxicity against human HepG2 cells after 72 hrs by Alamar Blue assay; type: cell-based; conditions: HepG2, 72 h
[1] = Cytotoxicity against HEK293 cells assay at 40 uM after 72 hrs by Alamar Blue assay; type: cell-based; conditions: human, read-out: INH
[2] = Cytotoxicity against human HepG2 cells assay at 40 uM after 72 hrs by Alamar Blue assay; type: cell-based; conditions: read-out: INH
[3] = Selectivity index, ratio of IC50 for chloroquine-sensitive Plasmodium falciparum 3D7 to IC50 for HEK293 cells
[4] = Selectivity index, ratio of IC50 for chloroquine-sensitive Plasmodium falciparum 3D7 to IC50 for human HepG2 cells

Row | SMILES | IC50 (Plasmodium falciparum) | IC50 (HEK293) | IC50 (HepG2) | cytotoxicity at 72 h, 40 µM [1] | cytotoxicity at 72 h, 40 µM [2] | Ratio IC50 [3] | Ratio IC50 [4]
1 | COC1C(Br)=CO[C@@]2(C=C1Br)ON=C(C(=O)NCCCOc1c(Br)cc(CC[N+](C)(C)C)cc1Br)[C@@H]2O.O=C([O-])C(F)(F)F (some centres undefined) [PSAMMAPLYSIN H] | 0.41 µM | > 40 µM | > 40 µM | 35% | 33% | >97 | >97
2 | COC1C(Br)=CO[C@@]2(C=C1Br)ON=C(C(=O)NCCCOc1c(Br)cc(CCN(C)C(N)=O)cc1Br)[C@@H]2O (some centres undefined) [PSAMMAPLYSINS G] | 5.22 µM | 18.7 µM | 17.4 µM | – | – | 3 | 3
3 | CCN(CC)CCCC(C)Nc1ccnc2cc(Cl)ccc12 (centres undefined) [CHLOROQUINE] | – | 48 µM | 12.9 µM | – | – | – | –
4 | CNCCc1cc(Br)c(OCCCNC(=O)C2=NO[C@@]3(C=C(Br)C(OC)C(Br)=CO3)[C@H]2O)c(Br)c1 (some centres undefined) [PSAMMAPLYSINS F] | 1.92 µM | 10.9 µM | 3.7 µM | – | – | 5 | 2
